Experimental data taken from PubChem BioAssay (NCI).
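Results reflect a 48-hour exposure of cells in 96-well plates to compound at five concentrations. At the TGI there is no net growth.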

Experiments:
Assay in all cases: NCI tumour cell line growth inhibition, 48 h
SR leukemia = tested on: SR leukemia
HOP-18 NSCLC = tested on: HOP-18 NSCLC
HCC-2998 colon = tested on: HCC-2998 colon
SK-MEL-2 melanoma = tested on: SK-MEL-2 melanoma
XF 498 CNS = tested on: XF 498 CNS
SF-539 CNS = tested on: SF-539 CNS
RXF-631 renal = tested on: RXF-631 renal
UACC-257 melanoma = tested on: UACC-257 melanoma
MALME-3M melanoma = tested on: MALME-3M melanoma
K-562 leukemia = tested on: K-562 leukemia
TK-10 renal = tested on: TK-10 renal
COLO 205 colon = tested on: COLO 205 colon
LXFL 529 NSCLC = tested on: LXFL 529 NSCLC
NCI-H23 lung = tested on: NCI-H23 lung
EKVX NSCLC = tested on: EKVX NSCLC
SNB-19 CNS = tested on: SNB-19 CNS
A498 renal = tested on: A498 renal
SK-MEL-28 melanoma = tested on: SK-MEL-28 melanoma
HOP-92 NSCLC = tested on: HOP-92 NSCLC
DLD-1 colon = tested on: DLD-1 colon
OVCAR-5 ovarian = tested on: OVCAR-5 ovarian
M19-MEL melanoma = tested on: M19-MEL melanoma
UO-31 renal = tested on: UO-31 renal
HOP-62 NSCLC = tested on: HOP-62 NSCLC
SF-268 CNS = tested on: SF-268 CNS
U251 CNS = tested on: U251 CNS
786-0 renal = tested on: 786-0 renal
SW-620 colon = tested on: SW-620 colon
RXF 393 renal = tested on: RXF 393 renal
CCRF-CEM leukemia = tested on: CCRF-CEM leukemia
HCT-116 colon = tested on: HCT-116 colon
SK-MEL-5 melanoma = tested on: SK-MEL-5 melanoma
OVCAR-8 ovarian = tested on: OVCAR-8 ovarian
UACC-62 melanoma = tested on: UACC-62 melanoma
DMS 273 small cell lung = tested on: DMS 273 small cell lung
DMS 114 small cell lung = tested on: DMS 114 small cell lung
HT29 colon = tested on: HT29 colon
OVCAR-4 ovarian = tested on: OVCAR-4 ovarian
CAKI-1 renal = tested on: CAKI-1 renal
MOLT-4 leukemia = tested on: MOLT-4 leukemia
A549 NSCLC = tested on: A549 NSCLC
KM12 colon = tested on: KM12 colon
RPMI-8226 leukemia = tested on: RPMI-8226 leukemia
HCT-15 colon = tested on: HCT-15 colon
IGROV1 ovarian = tested on: IGROV1 ovarian
SK-OV-3 ovarian = tested on: SK-OV-3 ovarian
SN12C renal = tested on: SN12C renal
KM20L2 colon = tested on: KM20L2 colon
M14 melanoma = tested on: M14 melanoma
NCI-H460 lung = tested on: NCI-H460 lung
SNB-75 CNS = tested on: SNB-75 CNS
NCI-H226 lung = tested on: NCI-H226 lung
ACHN renal = tested on: ACHN renal
LOX IMVI melanoma = tested on: LOX IMVI melanoma
SF-295 CNS = tested on: SF-295 CNS
SNB-78 CNS = tested on: SNB-78 CNS
OVCAR-3 ovarian = tested on: OVCAR-3 ovarian
HL-60(TB) leukemia = tested on: HL-60(TB) leukemia
NCI-H522 lung = tested on: NCI-H522 lung

Measured: TGI

C=C1CCC(OC(C)=O)C2(C)C(OC(C)=O)CC3OC3(C)C2C(OC(C)=O)C2C(C)C(=O)OC2C1Cl (stereo unspecified)
not listed: NCI-H522 lung
> 100 µM: all other assays above

CCOCc1cc(=O)c2cc3c(cc2o1)OC(C)(C)CC3
not listed: SK-MEL-28 melanoma
> 100 µM: all other assays above
